Laboratory results: the supplement of paper PMC13207355

Assays:
Conditions in all cases: exposure time: 72 h
E13 [1] = patient-derived glioblastoma stem cells of classical subtype; assay: surviving fraction (nuclei count normalised to DMSO); higher = more cells surviving (less toxic)
E21 [2] = patient-derived glioblastoma stem cells of mesenchymal subtype; assay: as above
E28 [3] = patient-derived glioblastoma stem cells of classical subtype; assay: as above
E31 [4] = patient-derived glioblastoma stem cells of proneural subtype; assay: as above
E34 [5] = patient-derived glioblastoma stem cells of proneural subtype; assay: as above
E57 [6] = patient-derived glioblastoma stem cells of mesenchymal subtype; assay: as above
FT3469 [7] = normal neural stem cell line; assay: as above
E13 [8] = assay: phenotypic distance (Euclidean, principal components) from DMSO controls (arbitrary units); higher = stronger morphological change
E21 [9] = assay: as above
E28 [10] = assay: as above
E31 [11] = assay: as above
E34 [12] = assay: as above
E57 [13] = assay: as above
FT3469 [14] = assay: as above
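For phenotypic distance (Euclidean, principal components) from DMSO controls in this document: cell Painting imaging in 384-well plates, CellProfiler features reduced to at least 20 principal components, Euclidean distance versus same-plate DMSO vehicle wells (0.1% v/v), median over six images per well.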
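For surviving fraction (nuclei count normalised to DMSO) in this document: nuclei counted by high-content imaging of Hoechst-stained cells in laminin-coated 384-well plates, relative to 0.1% DMSO vehicle wells, with staurosporine as cell-death control.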

CC[N+](CC)(CC)CCOc1ccc(/C=C/c2ccccc2)cc1 [MG 624]
Conditions	phenotypic distance	surviving fraction
E13 [1], 4.1 nM	–	0.872
E13 [1], 12.3 nM	–	1.01
E13 [1], 37 nM	–	0.904
E13 [1], 111.1 nM	–	0.898
E13 [1], 333.3 nM	–	0.819
E13 [1], 1000 nM	–	0.958
E13 [1], 3000 nM	–	0.636
E13 [8], 4.1 nM	0.785	–
E13 [8], 12.3 nM	1.16	–
E13 [8], 37 nM	0.769	–
E13 [8], 111.1 nM	0.848	–
E13 [8], 333.3 nM	1.65	–
E13 [8], 1000 nM	2.21	–
E13 [8], 3000 nM	2.89	–
E21 [2], 4.1 nM	–	0.978
E21 [2], 12.3 nM	–	0.972
E21 [2], 37 nM	–	0.961
E21 [2], 111.1 nM	–	1.05
E21 [2], 333.3 nM	–	1.02
E21 [2], 1000 nM	–	0.929
E21 [2], 3000 nM	–	0.748
E21 [9], 4.1 nM	0.724	–
E21 [9], 12.3 nM	0.703	–
E21 [9], 37 nM	0.669	–
E21 [9], 111.1 nM	0.982	–
E21 [9], 333.3 nM	1.38	–
E21 [9], 1000 nM	1.38	–
E21 [9], 3000 nM	2.84	–
E28 [3], 4.1 nM	–	1.04
E28 [3], 12.3 nM	–	1.24
E28 [3], 37 nM	–	0.999
E28 [3], 111.1 nM	–	1.11
E28 [3], 333.3 nM	–	1.29
E28 [3], 1000 nM	–	0.97
E28 [3], 3000 nM	–	0.897
E28 [10], 4.1 nM	2.26	–
E28 [10], 12.3 nM	1.2	–
E28 [10], 37 nM	0.981	–
E28 [10], 111.1 nM	1.14	–
E28 [10], 333.3 nM	1.59	–
E28 [10], 1000 nM	0.807	–
E28 [10], 3000 nM	0.948	–
E31 [4], 4.1 nM	–	1.02
E31 [4], 12.3 nM	–	1.02
E31 [4], 37 nM	–	0.927
E31 [4], 111.1 nM	–	1.22
E31 [4], 333.3 nM	–	1.03
E31 [4], 1000 nM	–	1.11
E31 [4], 3000 nM	–	0.671
E31 [11], 4.1 nM	2.31	–
E31 [11], 12.3 nM	2.34	–
E31 [11], 37 nM	0.662	–
E31 [11], 111.1 nM	1.14	–
E31 [11], 333.3 nM	1.83	–
E31 [11], 1000 nM	2.39	–
E31 [11], 3000 nM	3.97	–
E34 [5], 4.1 nM	–	1.13
E34 [5], 12.3 nM	–	0.931
E34 [5], 37 nM	–	0.93
E34 [5], 111.1 nM	–	0.904
E34 [5], 333.3 nM	–	1.06
E34 [5], 1000 nM	–	1.1
E34 [5], 3000 nM	–	0.853
E34 [12], 4.1 nM	0.531	–
E34 [12], 12.3 nM	0.708	–
E34 [12], 37 nM	1	–
E34 [12], 111.1 nM	0.94	–
E34 [12], 333.3 nM	1.4	–
E34 [12], 1000 nM	1.76	–
E34 [12], 3000 nM	0.649	–
E57 [6], 4.1 nM	–	0.981
E57 [6], 12.3 nM	–	0.982
E57 [6], 37 nM	–	1.06
E57 [6], 111.1 nM	–	1.1
E57 [6], 333.3 nM	–	1.15
E57 [6], 1000 nM	–	0.922
E57 [6], 3000 nM	–	1.05
E57 [13], 4.1 nM	0.764	–
E57 [13], 12.3 nM	0.906	–
E57 [13], 37 nM	0.99	–
E57 [13], 111.1 nM	1.14	–
E57 [13], 333.3 nM	1.29	–
E57 [13], 1000 nM	1.55	–
E57 [13], 3000 nM	1.49	–
FT3469 [7], 4.1 nM	–	0.999
FT3469 [7], 12.3 nM	–	0.934
FT3469 [7], 37 nM	–	1.26
FT3469 [7], 111.1 nM	–	1.25
FT3469 [7], 333.3 nM	–	1.13
FT3469 [7], 1000 nM	–	1.12
FT3469 [7], 3000 nM	–	1.03
FT3469 [14], 4.1 nM	0.491	–
FT3469 [14], 12.3 nM	1.05	–
FT3469 [14], 37 nM	0.814	–
FT3469 [14], 111.1 nM	1.61	–
FT3469 [14], 333.3 nM	1.29	–
FT3469 [14], 1000 nM	1.26	–
FT3469 [14], 3000 nM	1.36	–

CC(C)(C)C1CCN(C(=O)n2ncc(C(O)(c3ccccc3)c3ccccc3)n2)CC1 [ML211]
Conditions	phenotypic distance	surviving fraction
E13 [1], 4.1 nM	–	0.909
E13 [1], 12.3 nM	–	0.883
E13 [1], 37 nM	–	0.918
E13 [1], 111.1 nM	–	0.985
E13 [1], 333.3 nM	–	0.984
E13 [1], 1000 nM	–	0.975
E13 [1], 3000 nM	–	0.916
E13 [8], 4.1 nM	0.844	–
E13 [8], 12.3 nM	0.731	–
E13 [8], 37 nM	0.757	–
E13 [8], 111.1 nM	0.461	–
E13 [8], 333.3 nM	0.703	–
E13 [8], 1000 nM	0.699	–
E13 [8], 3000 nM	0.911	–
E21 [2], 4.1 nM	–	0.93
E21 [2], 12.3 nM	–	0.888
E21 [2], 37 nM	–	0.946
E21 [2], 111.1 nM	–	0.8973
E21 [2], 333.3 nM	–	0.973
E21 [2], 1000 nM	–	0.9031
E21 [2], 3000 nM	–	0.889
E21 [9], 4.1 nM	0.863	–
E21 [9], 12.3 nM	0.923	–
E21 [9], 37 nM	0.671	–
E21 [9], 111.1 nM	0.652	–
E21 [9], 333.3 nM	0.683	–
E21 [9], 1000 nM	0.885	–
E21 [9], 3000 nM	0.961	–
E28 [3], 4.1 nM	–	1.09
E28 [3], 12.3 nM	–	1
E28 [3], 37 nM	–	1
E28 [3], 111.1 nM	–	1
E28 [3], 333.3 nM	–	0.987
E28 [3], 1000 nM	–	0.9874
E28 [3], 3000 nM	–	0.883
E28 [10], 4.1 nM	0.935	–
E28 [10], 12.3 nM	0.886	–
E28 [10], 37 nM	0.733	–
E28 [10], 111.1 nM	0.678	–
E28 [10], 333.3 nM	0.596	–
E28 [10], 1000 nM	0.668	–
E28 [10], 3000 nM	1.42	–
E31 [4], 4.1 nM	–	0.9689
E31 [4], 12.3 nM	–	0.979
E31 [4], 37 nM	–	0.993
E31 [4], 111.1 nM	–	0.928
E31 [4], 333.3 nM	–	1.04
E31 [4], 1000 nM	–	0.973
E31 [4], 3000 nM	–	0.823
E31 [11], 4.1 nM	0.563	–
E31 [11], 12.3 nM	0.567	–
E31 [11], 37 nM	0.644	–
E31 [11], 111.1 nM	0.641	–
E31 [11], 333.3 nM	1.05	–
E31 [11], 1000 nM	0.871	–
E31 [11], 3000 nM	1.12	–
E34 [5], 4.1 nM	–	0.956
E34 [5], 12.3 nM	–	0.941
E34 [5], 37 nM	–	0.95
E34 [5], 111.1 nM	–	0.868
E34 [5], 333.3 nM	–	0.976
E34 [5], 1000 nM	–	0.965
E34 [5], 3000 nM	–	0.8932
E34 [12], 4.1 nM	1.21	–
E34 [12], 12.3 nM	0.912	–
E34 [12], 37 nM	1.05	–
E34 [12], 111.1 nM	0.782	–
E34 [12], 333.3 nM	0.763	–
E34 [12], 1000 nM	0.734	–
E34 [12], 3000 nM	0.728	–
E57 [6], 4.1 nM	–	0.995
E57 [6], 12.3 nM	–	1
E57 [6], 37 nM	–	0.9744
E57 [6], 111.1 nM	–	1.02
E57 [6], 333.3 nM	–	0.964
E57 [6], 1000 nM	–	0.974
E57 [6], 3000 nM	–	0.894
E57 [13], 4.1 nM	0.588	–
E57 [13], 12.3 nM	0.447	–
E57 [13], 37 nM	0.552	–
E57 [13], 111.1 nM	0.483	–
E57 [13], 333.3 nM	0.642	–
E57 [13], 1000 nM	0.6	–
E57 [13], 3000 nM	0.835	–
FT3469 [7], 4.1 nM	–	0.879
FT3469 [7], 12.3 nM	–	1.008
FT3469 [7], 37 nM	–	0.989
FT3469 [7], 111.1 nM	–	0.934
FT3469 [7], 333.3 nM	–	0.885
FT3469 [7], 1000 nM	–	0.816
FT3469 [7], 3000 nM	–	0.817
FT3469 [14], 4.1 nM	1.1	–
FT3469 [14], 12.3 nM	0.699	–
FT3469 [14], 37 nM	0.637	–
FT3469 [14], 111.1 nM	0.748	–
FT3469 [14], 333.3 nM	0.841	–
FT3469 [14], 1000 nM	1.25	–
FT3469 [14], 3000 nM	1.74	–
